Assay results as given in article PMC8386742, “Discovery of N-aryl sulphonamide-quinazoline derivatives as anti-gastric cancer agents in vitro and in vivo via activating the Hippo signalling pathway” (Journal of Enzyme Inhibition and Medicinal Chemistry, 2021).
Like-named read-outs stand apart in the source and are kept apart here.

What was measured:
MGC-803 cells [1] = details: 48 h, cited from earlier work
MCF-7 cells = experiment: MTT antiproliferative assay, MCF-7 cells; assay type: cell-based, human; details: exposure for 48 h
Procedure: (§1) The in vitro antiproliferative activities of new target compounds 6a–6g, 9a–9i, 10a–10j, 11a–11j, and 14a–14d were evaluated against four human cancer cell lines (MGC-803, PC-3, HCT-116, and MCF-7) using MTT assay and 5-FU as a positive drug. The following Tables 1–[4] depicted the results of in vitro antiproliferative activity.
(§2) Cell lines used were cultured in humidified incubator in a humidified atmosphere of 5% CO2 and 95% air. The RPMI-1640 medium was supplemented with 10% foetal bovine serum, penicillin (100 U/ml) and streptomycin (0.1 mg/ml).
(§3) Cell lines were seeded into 96-well plates and incubated for 24 h. Then cells were treated with different concentrations of compounds. And after another 48 h, MTT reagent (20 μL per well) was added to each well and then incubated at 37 °C for 4 h. After the suspension was discarded, formazan was then dissolved with DMSO. Absorbencies of formazan solution were measured at 490 nm. The IC50 values of tested compounds were calculated by SPSS version 17.0.

HUEVC cells = experiment: MTT antiproliferative assay, HUEVC normal cells; assay type: cell-based; details: exposure for 48 h, non-cancer cell line
Procedure: (§4) Furthermore, MGC-803 cells were more sensitive to the compounds than HCT-116, PC-3 cells MCF-7 cells. Moreover, we chose two other common gastric cancer cell lines (HGC-27 and SGC-7901) and another two normal cells GES-1 and HUEVC cells to examine for the inhibitory activity of compound 9i.
as §2, §3

HCT-116 cells = experiment: MTT antiproliferative assay, HCT-116 cells; assay type: cell-based, human; details: exposure for 48 h
Procedure: as §1, §2, §3

HGC-27 cells = experiment: MTT antiproliferative assay, HGC-27 gastric cancer cells; assay type: cell-based; details: MTT, exposure for 48 h
Procedure: as §4, §2, §3

GES-1 cells = experiment: MTT antiproliferative assay, GES-1 normal gastric epithelial cells; assay type: cell-based; details: MTT, exposure for 48 h, non-cancer cell line
Excerpt: as §4
Since compound 9i presented high potency against cancer cells and MGC-803 cells was more sensitive to compound 9i, compound 9i, MGC-803, another two gastric cancer cells SGC-7901, HGC-27, and GES-1(normal gastric epithelial cells) were used for further detection. As shown in Figures 3(A,B), compound 9i inhibited three gastric cancer cell lines in the dose and time-dependent manners. The inhibition ratios of compound 9i against three gastric cancer cells were all above 50% after 48 h in the high dosage group. Moreover, MGC-803 and SGC-7901 cell lines were more sensitive and compound 9i inhibited over 65% cell viability with high dose treatment for 48 h.
as §2, §3

SGC-7901 cells = experiment: MTT antiproliferative assay, SGC-7901 gastric cancer cells; assay type: cell-based; details: exposure for 48 h
Procedure: as §4, §2, §3

PC-3 cells = experiment: MTT antiproliferative assay, PC-3 cells; assay type: cell-based, human
Procedure: as §1, §2, §3

MGC-803 cells [2] = experiment: MTT antiproliferative assay, MGC-803 cells; assay type: cell-based, human; details: Homo sapiens, MGC-803, 48 h, exposure for 48 h
Procedure: as §1, §2, §3

[3] = Homo sapiens, PC-3, exposure for 48 h

COc1ccc(CN(C(=O)CSc2nc3ccccc3[nH]2)c2cc(OC)c(OC)c(OC)c2)cc1 [Compound 1]
IC50 (MGC-803 cells [1]; previously reported compound 1 ref 31): 1.23 µM

COc1cc(N(Cc2nc3ccccc3[nH]2)S(=O)(=O)c2ccc(C)cc2)cc(OC)c1OC [Compound 2]
IC50 (MGC-803 cells [1]; previously reported compound 2 ref 32): 1.02 µM

O=c1[nH]cc(F)c(=O)[nH]1 [Compound 5-Fu, reference compound]
IC50 (MCF-7 cells): 12.1 ± 1.28 µM
IC50 (HUEVC cells): 18.5 µM
IC50 (HCT-116 cells): 14.4 ± 1.73 µM
IC50 (HGC-27 cells): 4.94 µM
IC50 (GES-1 cells): 10.2 µM
IC50 (SGC-7901 cells): 3.88 µM
IC50 (PC-3 cells; exposure for 48 h): 17.1 ± 1.42 µM

COc1cc(N(Cc2nc(C)c3ccccc3n2)C(=O)c2ccccc2)cc(OC)c1OC [Compound 11a, N-((4-Methylquinazolin-2-yl)methyl)-N-(3,4,5-trimethoxyphenyl) benzamide]
IC50 (MCF-7 cells; Homo sapiens, MCF7, 48 h): 25.3 ± 1.78 µM
IC50 (MGC-803 cells [2]): 18.5 ± 1.17 µM
IC50 (HCT-116 cells; Homo sapiens, HCT-116, 48 h): 19.8 ± 1.49 µM
melting point: 112 to 113 °C
IC50 (PC-3 cells; [3]): 25.3 ± 1.78 µM

COc1cc(N(Cc2nc(C)c3ccccc3n2)C(=O)c2ccc(F)cc2)cc(OC)c1OC [Compound 11b, 4-Fluoro-N-((4-methylquinazolin-2-yl)methyl)-N-(3,4,5-trimethoxyphenyl) benzamide]
IC50 (MCF-7 cells; Homo sapiens, MCF7, 48 h): 29.7 ± 1.83 µM
IC50 (MGC-803 cells [2]): 14.1 ± 1.01 µM
IC50 (HCT-116 cells; Homo sapiens, HCT-116, 48 h): 18.9 ± 1.23 µM
melting point: 162 to 163 °C
IC50 (PC-3 cells; [3]): 31.1 ± 2.04 µM

COc1cc(N(Cc2nc(C)c3ccccc3n2)C(=O)c2ccc(Br)cc2)cc(OC)c1OC [Compound 11c, 4-Bromo-N-((4-methylquinazolin-2-yl)methyl)-N-(3,4,5-trimethoxyphenyl) benzamide]
IC50 (MCF-7 cells; Homo sapiens, MCF7, 48 h): 28.1 ± 1.47 µM
IC50 (MGC-803 cells [2]): 13.6 ± 1.24 µM
IC50 (HCT-116 cells; Homo sapiens, HCT-116, 48 h): 20.4 ± 1.23 µM
melting point: 182 to 183 °C
IC50 (PC-3 cells; [3]): 26.8 ± 1.32 µM

COc1cc(N(Cc2nc(C)c3ccccc3n2)C(=O)c2ccccc2Cl)cc(OC)c1OC [Compound 11d, 2-Chloro-N-((4-methylquinazolin-2-yl)methyl)-N-(3,4,5-trimethoxyphenyl) benzamide]
IC50 (MCF-7 cells; Homo sapiens, MCF7, 48 h): > 40 µM
IC50 (MGC-803 cells [2]): > 40 µM
IC50 (HCT-116 cells; Homo sapiens, HCT-116, 48 h): > 40 µM
melting point: 190 to 191 °C
IC50 (PC-3 cells; [3]): > 40 µM

COc1cc(N(Cc2nc(C)c3ccccc3n2)C(=O)c2c(C)cc(C)cc2C)cc(OC)c1OC [Compound 11f, 2,4,6-Trimethyl-N-((4-methylquinazolin-2-yl)methyl)-N-(3,4,5-trimethoxyphenyl) benzamide]
IC50 (MCF-7 cells; Homo sapiens, MCF7, 48 h): > 40 µM
IC50 (MGC-803 cells [2]): 32.8 ± 2.12 µM
IC50 (HCT-116 cells; Homo sapiens, HCT-116, 48 h): 28.5 ± 2.64 µM
melting point: 209 to 210 °C
IC50 (PC-3 cells; [3]): > 40 µM

COc1cc(N(Cc2nc(C)c3ccccc3n2)C(=O)c2ccc(C(C)(C)C)cc2)cc(OC)c1OC [Compound 11g, 4-(Tert-butyl)-N-((4-methylquinazolin-2-yl)methyl)-N-(3,4,5-trimethoxyphenyl) benzamide]
IC50 (MCF-7 cells; Homo sapiens, MCF7, 48 h): > 40 µM
IC50 (MGC-803 cells [2]): > 40 µM
IC50 (HCT-116 cells; Homo sapiens, HCT-116, 48 h): > 40 µM
melting point: 117 to 118 °C
IC50 (PC-3 cells; [3]): > 40 µM

COc1cc(C(=O)N(Cc2nc(C)c3ccccc3n2)c2cc(OC)c(OC)c(OC)c2)cc(OC)c1OC [Compound 11i, 3,4,5-Trimethoxy-N-((4-methylquinazolin-2-yl)methyl)-N-(3,4,5-trimethoxyphenyl) benzamide]
IC50 (MCF-7 cells; Homo sapiens, MCF7, 48 h): > 40 µM
IC50 (MGC-803 cells [2]): 16.8 ± 2.02 µM
IC50 (HCT-116 cells; Homo sapiens, HCT-116, 48 h): 20.4 ± 1.92 µM
melting point: 129 to 130 °C
IC50 (PC-3 cells; [3]): > 40 µM

COc1cc(N(Cc2nc(C)c3ccccc3n2)C(=O)c2cccs2)cc(OC)c1OC [Compound 11j, N-((4-methylquinazolin-2-yl)methyl)-N-(3,4,5-trimethoxyphenyl)thiophene-2-carboxamide]
IC50 (MCF-7 cells; Homo sapiens, MCF7, 48 h): > 40 µM
IC50 (MGC-803 cells [2]): 14.7 ± 1.88 µM
IC50 (HCT-116 cells; Homo sapiens, HCT-116, 48 h): 24.8 ± 2.13 µM
melting point: 136 to 137 °C
IC50 (PC-3 cells; [3]): > 40 µM

COc1ccc(S(=O)(=O)N(Cc2nc(C)c3ccccc3n2)c2ccccc2)cc1 [Compound 14a, 4-Methoxy-N-((4-methylquinazolin-2-yl)methyl)-N-phenylbenzene-sulphonamide]
IC50 (MCF-7 cells; Homo sapiens, MCF7, 48 h): > 50 µM
IC50 (MGC-803 cells [2]): 44.6 ± 1.41 µM
IC50 (HCT-116 cells; Homo sapiens, HCT-116, 48 h): 46.9 ± 1.84 µM
melting point: 85 to 86 °C
IC50 (PC-3 cells; [3]): > 50 µM

COc1ccc(S(=O)(=O)N(Cc2nc(C)c3ccccc3n2)c2ccc(C)cc2)cc1 [Compound 14d, 4-Methoxy-N-((4-methylquinazolin-2-yl)methyl)-N-(p-tolyl)benzene-sulphonamide]
IC50 (MCF-7 cells; Homo sapiens, MCF7, 48 h): > 50 µM
IC50 (MGC-803 cells [2]): 42.2 ± 2.44 µM
IC50 (HCT-116 cells; Homo sapiens, HCT-116, 48 h): > 50 µM
melting point: 129 to 130 °C
IC50 (PC-3 cells; [3]): 45.7 ± 2.88 µM
